Data on four molecules can be found in patent publication US20140080706A1, “METHOD OF PREPARING AN AQUEOUS TANK MIX COMPRISING A BASE” (BASF SE, priority 2011, published 2014).

For data set [1], the system named is Soya (glycine max) Variant Deltapine. Nature of the data set: Biological evaluation of low phytotoxicity on glyphosate-resistant soya. The settings on record: glyphosate tank mixes. It counts as in vivo. As for the experimental part:
For the greenhouse tests, maize (cultivar Amadeo) and Chenopodium album was sown or potted in loamy sandy soil to a depth of 1-2 cm. When the plants had reached a growth height of 10 to 25 cm (around 10 to 21 days after sowing), the spray mixtures were applied to the plants in a spraying cabin.
The temperatures in the experimental period, which lasted for 3 to 4 weeks, were between 18-35° C. During this time, the experimental plants received optimum watering, with nutrients being supplied via the water used for watering.
The herbicidal activity was evaluated by awarding scores to the treated plants in comparison to the untreated control plants (Table 1 and 2). The evaluation scale ranges from 0% to 100% activity. 100% activity means the complete death at least of those parts of the plant that are above ground. Conversely, 0% activity means that there were no differences between treated and untreated plants.
The biological evaluation was made as described in Example 6. The tank mixes were applied at a application rate of 375 l/ha (125 or 250 g of glyphosate free acid/ha and 300 g of adjuvant/ha). The adjuvant Ad1 is an aqeuous solution of 200 g/l Genamin® T150 (a tallow fatty amine ethoxylate with 15 EO). The adjuvant Ad2 is Genamin® T050 (a tallow fatty amine ethoxylate with 5 EO).
Soya (glycine max) Variant Deltapine was genetically engineered to resist glyphosate.

Data set [2] in a line: Volatility: loss of dicamba from tank mix on petri dish. Type of data set: physicochemical. As to conditions: 70° C., 24 h. As for the experimental part: The volatility was determined by analyzing the loss of material by HLPL at 70° C. after 24 h at atmospheric pressure. A sample of the aqueous tank mix (300 l/ha) was placed on the petri dish with a defined area (corresponding to a desired field application rate, such as 500 g/ha pesticide).
The application rate was 500 g/ha dicamba (free acid), 1000 g/ha potassium glyphosate, 300 g/ha Genamin® T050 (“Ad2”), 300 g/ha Preference® (“Ad3”) and optionally 250, 500 or 1000 g/ha K2CO3. Deionised water (hardness <1° dH) was used to prepare the samples. Dicamba BAPMA refers to the bis(3-aminopropyl)methylamine salt of dicamba.

A short description of another data set: pH of tank mix. Type of data set: physicochemical. As for the experimental part:
According to the invention, an aqueous tank mix which has a tank mix acidity of at least pH 5.0 was prepared. Preferably, the tank mix acidity corresponds to a pH of at least 6.0, better of at least 7.0, more preferably of at least 7.5, especially preferred of at least 8.0 and in particular of at least 8.5. The tank mix acidity may correspond to a pH of up to 13.0, preferably of up to 11.0 and in particular of up to 9.0. The tank mix acidity is usually determined as pH value at 20° C. without dilution of the tank mix.

For data set [3] the following is noted: typical value; cited from earlier work.

As for `O=C([O-])[O-].[K+].[K+]` [Example K2CO3, K2CO3], the “phytotoxity effect on plants of addition of K2CO3” value in data set [1] is given as “no phytotoxity effect”.

As for `COc1c(Cl)ccc(Cl)c1C(=O)O` [Dicamba free acid, dicamba], in data set [2] (atmospheric pressure, application rate 500 g/ha dicamba), the “Loss of dicamba, Loss (wt %)” value is reported as 80 wt %. The “pH of tank mix” value in the data set “pH of tank mix” (Table 5 tank mixes, 500 g/ha dicamba, 300 l/ha) worked out at 3.0.

Regarding `CN(CCCN)CCCN.COc1c(Cl)ccc(Cl)c1C(=O)O` [Dicamba BAPMA, bis(3-aminopropyl)methylamine salt of dicamba], the “Loss of dicamba, Loss (wt %)” value in data set [2] (500 g/ha dicamba, 1000 g/ha potassium glyphosate, 300 g/ha Ad2, 300 g/ha Ad3, deionised water) was less than 1 wt %. For the same molecule, the “pH of tank mix” value in the data set “pH of tank mix” (Table 6 tank mixes, deionised water (hardness <1° dH)) is listed as 6.3.

As to `O=C(O)CNCP(=O)(O)O` [glyphosate], in data set [3], the “pKa for the amine” value is listed as 11.0, the “pKa for the carboxylic acid” value was 2.3, the “pKa for the first phosphonic acid” value is 0.8 and the “pKa for the second phosphonic acid” value is 6.0.
